Values of other authors in paper PMC7455853 (European Journal of Medicinal Chemistry, 2020).
Structures can show the parent of a compound that is named as a salt. Each block holds one compound with its values, some of them ahead of it.

Columns and labels:
[1] = tested on: tubulin (colchicine binding); settings: at 5 μM
NF–Y binding to the ICB2 = settings: EMSA
HIF-1 = settings: read-out: HIF-1 inhibitory activity IC50; HeLa cells

SMILES: COc1ccc(/C=C\c2cc(OC)c(OC)c(OC)c2)cc1O [CA-4, combretastatin A-4]
inhibition of colchicine binding [1]: 98%

SMILES: COc1ccc2cc3[n+](cc2c1OC)CCc1cc2c(cc1-3)OCO2 [berberine hydrochloride]
IC50 (SrtA): 120 µM

SMILES: Brc1cccc(Nc2ncnc3[nH]ccc23)c1 [compound 8]
IC50 (EGFR): 0.00376 µM
IC50 (AURKA): 1.99 µM

Now from value to compound:

DNA binding affinity (ICB2 site): 0.5 µM
doses giving dose-dependent inhibition of NF–Y binding to the ICB2 (NF–Y binding to the ICB2): ≥ 3 µM
SMILES: COc1ccc(-c2nc3ccc(C(=O)Nc4cn(C)c(C(=O)Nc5cc(C(=O)NCCCN(C)C)n(CCCN)c5)n4)cc3[nH]2)cc1 [compound 19a]

IC50 (HIF-1): 10.8 µM
SMILES: O=C(Cc1ccc(O)cc1)n1cc(-c2ccc(O)cc2)c(-c2ccc(O)cc2)c1 [neolamellarin A]
